Consider 38 compounds from patent publication US20260209233A1, “ANNULATED PYRIDAZINE DERIVATIVE” (Tenvie Therapeutics, Inc., priority 2022, published 2026).

A word on the IC50: it is the concentration needed to halve the response being measured.

For the experiment, the target named is T1, NLRP3 inflammasome (Homo sapiens, UniProt Q96P20).
T1 construct: endogenous in cells; host or cells: THP-1 cells, PMA-differentiated and stimulated with LPS and ATP
In words: THP-1 IL-1β production inhibition test. The note with it: PMA-treated THP-1 cells, LPS 50 ng/ml + ATP 5 mM, 2 hours, IL-1β in supernatant by ELISA. The class given is cell-based. The procedure:
Test Example 1: THP-1 IL-1β Production Inhibition Test
PMA (phorbol myristate acetate, SIGMA, P1585) was added to THP-1 cells in an amount of 50 ng/mL to culture the cells for 2 days at 37° C. The culture medium was replaced with a serum-free RPMI-1640 medium, and a compound with a known concentration was added thereto to culture the cells at 37° C. for 15 minutes. LPS (Lipopolysaccharide, SIMGA, L2880) and ATP (Adenosine triphosphate, SIGMA, A2383) were added so that final concentrations become 50 ng/ml and 5 mM, respectively, followed by culturing at 37° C. for 2 hours. The supernatants were collected to measure the concentrations of IL-1β by ELISA (DuoSet ELISA human IL-1β, R&D Systems, DY201). The IL-1β concentrations were plotted against log concentrations of test compounds, and an IC50 value was calculated by sigmoid Emax model nonlinear regression analysis.
Example compounds were confirmed to inhibit NLRP3 inflammasome activation and IL-1β production.
On the technique in general: In an ELISA, binding on a coated surface is turned into a signal by an enzyme label.

T1 sequence (Q96P20 whole entry): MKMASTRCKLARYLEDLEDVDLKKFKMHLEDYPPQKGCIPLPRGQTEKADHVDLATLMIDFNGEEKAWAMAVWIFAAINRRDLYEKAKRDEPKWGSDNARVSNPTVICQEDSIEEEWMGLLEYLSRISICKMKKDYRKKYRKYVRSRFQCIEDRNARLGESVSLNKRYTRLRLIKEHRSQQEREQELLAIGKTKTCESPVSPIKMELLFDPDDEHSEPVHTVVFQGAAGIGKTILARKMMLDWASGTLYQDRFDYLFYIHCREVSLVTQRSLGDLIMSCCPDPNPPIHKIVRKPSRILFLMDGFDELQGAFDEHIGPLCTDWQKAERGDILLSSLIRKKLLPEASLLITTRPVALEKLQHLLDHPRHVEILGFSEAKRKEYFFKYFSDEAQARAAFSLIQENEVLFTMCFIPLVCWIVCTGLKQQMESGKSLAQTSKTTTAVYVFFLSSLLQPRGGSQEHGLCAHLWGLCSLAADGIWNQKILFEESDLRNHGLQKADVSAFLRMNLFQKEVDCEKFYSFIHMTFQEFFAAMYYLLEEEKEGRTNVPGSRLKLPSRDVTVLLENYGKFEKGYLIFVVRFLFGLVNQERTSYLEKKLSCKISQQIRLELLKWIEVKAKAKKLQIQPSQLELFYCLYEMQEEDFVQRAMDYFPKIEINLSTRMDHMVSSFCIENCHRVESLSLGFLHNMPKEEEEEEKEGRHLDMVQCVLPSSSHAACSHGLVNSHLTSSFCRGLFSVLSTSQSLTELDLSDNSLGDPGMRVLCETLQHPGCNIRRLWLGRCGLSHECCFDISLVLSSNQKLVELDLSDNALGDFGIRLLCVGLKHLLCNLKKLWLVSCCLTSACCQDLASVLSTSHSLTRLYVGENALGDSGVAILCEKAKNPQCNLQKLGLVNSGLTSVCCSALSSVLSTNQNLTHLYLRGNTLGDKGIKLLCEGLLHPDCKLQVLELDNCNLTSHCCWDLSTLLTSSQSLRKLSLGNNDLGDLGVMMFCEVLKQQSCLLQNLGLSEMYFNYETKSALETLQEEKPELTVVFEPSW

Consider `Cc1c(-c2ccc(OC(F)F)cc2O)nnc2c1COCCN2[C@@H]1CCCC[C@H]1O` [Example 30, 5-(difluoromethoxy)-2-{9-[(1R,2R)-2-hydroxycyclohexyl]-4-methyl-5,7,8,9-tetrahydropyridazino[3,4-e][1,4]oxaazepin-3-yl}phenol], for which the IC50 worked out at 9.5 nM.
The result for `Cc1c(-c2ccc(OC(F)(F)F)cc2O)nnc2c1CCCN2[C@@H]1CCCN(C)C1` [Example 10] reads 49 nM; that for `Cc1c(-c2ccc(C(F)(F)F)cc2O)nnc2c1CCCN2c1cc[nH]n1` [Example 43, 2-[4-methyl-8-(1H-pyrazol-3-yl)-5,6,7,8-tetrahydropyrido[2,3-c]pyridazin-3-yl]-5-(trifluoromethyl)phenol], 230 nM; that for `Cc1c(-c2ccc(C(F)(F)F)cc2O)nnc2c1CCCN2[C@@H]1CCCN(C(N)=O)C1` [Example 33, (3R)-3-{3-[2-hydroxy-4-(trifluoromethyl)phenyl]-4-methyl-6,7-dihydropyrido[2,3-c]pyridazin-8(5H)-yl}piperidin-1-carboxyamide], 55 nM.
For `CC(=O)N1CCC[C@@H](N2CCCc3c2nnc(-c2ccc(C(F)(F)F)cc2O)c3C)C1` [Example 8], the IC50 is 26 nM.
The result for `Cc1c(-c2ccc(C(F)(F)F)cc2O)nnc2c1CCCN2[C@@H]1CCCN(C)C1=O` [Example 14] reads 22 nM; that for `Cc1c(-c2ccc(C(F)(F)F)cc2O)nnc2c1CCCN2[C@@H]1CCCN(C2COC2)C1` [Example 9], 35 nM.
Consider `CC(=O)O[C@@H]1CCCC[C@H]1N1CCN(C(C)=O)Cc2c1nnc(-c1ccc(C(F)(F)F)cc1O)c2C` [Example 39, (1R,2R)-2-{6-acetyl-3-[2-hydroxy-4-(trifluoromethyl)phenyl]-4-methyl-5,6,7,8-tetrahydro-9H-pyridazino[3,4-e][1,4]diazepin-9-yl}cyclohexyl acetate], for which the IC50 was found to be 160 nM.
The result for `Cc1c(-c2ccc(C(F)(F)F)cc2O)nnc2c1CCN2C[C@@H](C)O` [Example 20] reads 200 nM; that for `CN[C@@H]1CCCC[C@H]1N1CCCc2c1nnc(-c1ccc(C(F)(F)F)cc1O)c2C` [Example 17], 410 nM.
The figure for `Cc1c(-c2ccc(C(F)(F)F)cc2O)nnc2c1CN(C)CN2[C@@H]1CCCC[C@H]1O` [Example 36, 2-{8-[(1R,2R)-2-hydroxycyclohexyl]-4,6-dimethyl-5,6,7,8-tetrahydropyrimido[4,5-c]pyridazin-3-yl}-5-(trifluoromethyl)phenol] is 11 nM; for `CC(=O)NCCCCN1CCOCc2c1nnc(-c1ccc(C(F)(F)F)cc1O)c2C` [Example 25] it is 40 nM; for `Cc1c(-c2ccc(Cl)cc2O)nnc2c1COCCN2[C@@H]1CCCC[C@H]1O` [Example 19] it is 30 nM.
The figure for `Cc1c(-c2ccc(OC(F)F)cc2O)nnc2c1CCN2[C@H]1CCNC1=O` [Example 45, (3S)-3-{3-[4-(difluoromethoxy)-2-hydroxyphenyl]-4-methyl-5,6-dihydro-7H-pyrrolo[2,3-c]pyridazin-7-yl}pyrrolidin-2-one] is 28 nM.
Take `Cc1c(-c2ccc(C(F)(F)F)cc2O)nnc2c1CCCCN2[C@@H]1CCCC[C@H]1O` [Example 12]: the IC50 was 44 nM.
The result for `Cc1c(-c2ccc(C(F)(F)F)cc2O)nnc2c1CCN2[C@H]1CCNC1=O` [Example 5, (3S)-3-{3-[2-hydroxy-4-(trifluoromethyl)phenyl]-4-methyl-5,6-dihydro-7H-pyrrolo[2,3-c]pyridazin-7-yl}pyrrolidin-2-one] reads 13 nM; that for `Cc1c(-c2ccc(C(F)(F)F)cc2O)nnc2c1CCCN2[C@@H]1CCCN(C2CC2)C1` [Example 31, 2-{8-[(3R)-1-cyclopropylpiperidin-3-yl]-4-methyl-5,6,7,8-tetrahydropyrido[2,3-c]pyridazin-3-yl}-5-(trifluoromethyl)phenol], 12 nM.
On to `Cc1c(-c2ccc(C(F)(F)F)cc2O)nnc2c1CCCN2[C@@H]1CC[C@H](C#N)C1` [Example 22], for which the IC50 was found to be 120 nM.
The result for `COC(=O)N1CCC[C@@H](N2CCCc3c2nnc(-c2ccc(C(F)(F)F)cc2O)c3C)C1` [Example 32, (3R)-3-{3-[2-hydroxy-4-(trifluoromethyl)phenyl]-4-methyl-6,7-dihydropyrido[2,3-c]pyridazin-8(5H)-yl}piperidine-1-methyl carboxylate] reads 96 nM.
As to `Cc1c(-c2ccc(C(F)(F)F)cc2O)nnc2c1CN(C)CCN2[C@@H]1CCCC[C@H]1O` [Example 7, 2-{9-[(1R,2R)-2-hydroxycyclohexyl]-4,6-dimethyl-6,7,8,9-tetrahydro-5H-pyridazino[3,4-e][1,4]diazepin-3-yl}-5-(trifluoromethyl)phenol], the concentration for half-maximal inhibition (IC50) was 16 nM.
The result for `Cc1c(-c2ccc(C(F)(F)F)cc2O)nnc2c1CNCCN2[C@@H]1CCCC[C@H]1O` [Example 38, 2-{9-[(1R,2R)-2-hydroxycyclohexyl]-4-methyl-6,7,8,9-tetrahydro-5H-pyridazino[3,4-e][1,4]diazepin-3-yl}-5-(trifluoromethyl)phenol] reads 7.6 nM; that for `CCN1CCN([C@@H]2CCCC[C@H]2O)c2nnc(-c3ccc(C(F)(F)F)cc3O)c(C)c2C1` [Example 41, 2-{6-ethyl-9-[(1R,2R)-2-hydroxycyclohexyl]-4-methyl-6,7,8,9-tetrahydro-5H-pyridazino[3,4-e][1,4]diazepin-3-yl}-5-(trifluoromethyl)phenol], 26 nM; that for `Cc1c(-c2ccc(C(F)F)cc2O)nnc2c1CN(C)CCN2[C@@H]1CCCC[C@H]1O` [Example 44, 5-(difluoromethyl)-2-{9-[(1R,2R)-2-hydroxycyclohexyl]-4,6-dimethyl-6,7,8,9-tetrahydro-5H-pyridazino[3,4-e][1,4]diazepin-3-yl}phenol], 30 nM.
On to `Cc1c(-c2ccc(C(F)(F)F)cc2O)nnc2c1CNC(=O)N2[C@@H]1CCCC[C@H]1O` [Example 37, 8-[(1R,2R)-2-hydroxycyclohexyl]-3-[2-hydroxy-4-(trifluoromethyl)phenyl]-4-methyl-5,8-dihydropyrimido[4,5-c]pyridazin-7 (6H)-one], for which the 50% inhibitory concentration (IC50) was found to be 230 nM.
The figure for `Cc1cc(C(F)(F)F)cc(O)c1-c1cc2c(nn1)N([C@@H]1CCCC[C@H]1O)CCC2` [Example 18] is 15 nM; for `Cc1c(-c2ccc(OC(F)F)cc2O)nnc2c1CCCN2[C@@H]1CCOC[C@H]1O` [Example 29, (3S,4R)-4-{3-[4-(difluoromethoxy)-2-hydroxyphenyl]-4-methyl-6,7-dihydropyrido[2,3-c]pyridazin-8(5H)-yl}oxan-3-ol] it is 13 nM.
The result for `COc1ccc(-c2nnc3c(c2C)COCCN3[C@@H]2CCCN(C)C2)c(O)c1` [Example 6, 5-methoxy-2-{4-methyl-9-[(3R)-1 methylpiperidin-3-yl]-5,7,8,9-tetrahydropyridazino[3,4-e][1,4]oxaazepin-3-yl}phenol] reads 14 nM; that for `Cc1c(-c2ccc(C(F)(F)F)cc2O)nnc2c1CN(C)[C@H](C)CN2[C@@H]1CCCC[C@H]1O` [Example 42], 60 nM; that for `Cc1c(-c2ccc(C(F)(F)F)cc2O)nnc2c1CCCN2[C@@H]1CCCN(S(C)(=O)=O)C1` [Example 34, 2-{8-[(3R)-1-(methansulfonyl)piperidin-3-yl]-4-methyl-5,6,7,8-tetrahydropyrido[2,3-c]pyridazin-3-yl}-5-(trifluoromethyl)phenol], 37 nM.
The figure for `Cc1c(-c2ccc(C(F)(F)F)cc2O)nnc2c1CCN2[C@H]1C[C@@](C)(O)C1` [Example 35, 2-{7-[(1s,3s)-3-hydroxy-3-methylcyclobutyl]-4-methyl-6,7-dihydro-5H-pyrrolo[2,3-c]pyridazin-3-yl}-5-(trifluoromethyl)phenol] is 44 nM; for `Cc1c(-c2ccc(C(F)(F)F)cc2O)nnc2c1CCCN2[C@@H]1CCCNC1=O` [Example 13] it is 30 nM; for `CC(=O)N1CCN([C@@H]2CCCC[C@H]2O)c2nnc(-c3ccc(C(F)(F)F)cc3O)c(C)c2C1` [Example 40, 1-{9-[(1R,2R)-2-hydroxycyclohexyl]-3-[2-hydroxy-4-(trifluoromethyl)phenyl]-4-methyl-5,7,8,9-tetrahydro-6H-pyridazino[3,4-e][1,4]diazepin-6-yl}ethan-1-one] it is 190 nM.
In the case of `Cc1c(-c2ccc(C(F)(F)F)cc2O)nnc2c1CCCN2[C@@H]1CCCC[C@H]1O` [Example 1, 2-{8-[(1R,2R)-2-hydroxycyclohexyl]-4-methyl-5,6,7,8-tetrahydropyrido[2,3-c]pyridazin-3-yl}-5-(trifluoromethyl)phenol], the IC50 came out at 16 nM.
The figure for `Cc1c(-c2ccc(C(F)(F)F)cc2O)nnc2c1CCCN2[C@@H]1CCCN(C)C1` [Example 2, 2-{4-methyl-8-[(3R)-1-methylpiperidin-3-yl]-5,6,7,8-tetrahydropyrido[2,3-c]pyridazin-3-yl}-5-(trifluoromethyl)phenol] is 6.3 nM.
As for `Cc1c(-c2ccc(C(F)(F)F)cc2O)nnc2c1CCCN2[C@H]1CNC(=O)C1` [Example 15], the IC50 worked out at 780 nM.
The result for `COC1CCN([C@@H]2CCCC[C@H]2O)c2nnc(-c3ccc(C(F)(F)F)cc3O)c(C)c21` (some centres unmarked) [Example 21] reads 16 nM; that for `Cc1c(-c2ccc(C(F)(F)F)cc2O)nnc2c1CN(Cc1ccccc1)CCN2[C@@H]1CCCC[C@H]1O` [Example 23], 250 nM.
Turning to `Cc1c(-c2ccc(C(F)(F)F)cc2O)nnc2c1COCCN2[C@@H]1CCCN(CC(F)F)C1` [Example 26], the IC50 turned out to be 14 nM.
